{
  "source": "patent US20220218667A1",
  "about": "“DUAL INHIBITORS OF SOLUBLE EPOXIDE HYDROLASE AND METHODS OF USE THEREOF” (OROX Biosciences, Inc., priority 2019, published 2022)",
  "key": {"[1]": {"test_system": "C57B/L6 mice exposed to bleomycin", "assay": "Example 1: prophylactic treatment of mice exposed to bleomycin (IPF model)", "type": "in vivo, mouse", "conditions": "OX1, OX3, Nintedanib 30 mg/kg QD, Pirfenidone 100 mg/kg BID", "from_the_text": "4-(5-phenyl-3-{3-[3-(4-trifluoromethyl-phenyl)-ureido]-propyl}-pyrazol-1-yl)-benzenesulfonamide (PTUPB) [termed OX1] was compared to Pirfenidone, Nintedanib, and GSK225629415 [termed OX3] for treatment of IPF using an established model for IPF treating, which is prophylactic treatment of mice exposed to the chemotherapeutic agent bleomycin. […] Pirfenidone and Nintedanib are standard of care for the treatment of idiopathic pulmonary fibrosis and served as reference compounds in the experiment.\nC57B/L6 mice were used in the experiments. When used, Bleomycin was administered intra-oropharyngeally, 1.5 U/kg, QD per established protocol. The test articles were dosed via oral gavage in 200 μL/day vehicle. The doses and formulations of test articles were selected based on the literature describing the lowest doses capable of eliciting pharmacological action.\nAnimals were dosed with the test articles (or vehicle) starting at day −1 to day 20. On day 1, daily doses of Bleomycin commenced in all but group 1 (negative control) which received the vehicle. On day 21, all animals were weighed and sacrificed. After lungs and bronco-alveolar lavage fluid (BALF) were harvested, they were prepared according to standard procedures for further analysis and histology. All animals were assessed twice a week for body weight and overall appearance. Efficacy endpoints measured in this study included lung weight, total leukocytes, and histology as determined by Mason's Trichrome stain and scored using a modified Ashcroft score.\nThe following parameters were measured in bronchoalveolar fluid (BALF): 1) soluble collagen and 2) differential leukocyte counts for different leukocyte populations.\nAfter weighing and removal of BALF from the lungs, they were inflated and fixed using 10% neutral buffered formalin for histopathology analysis. Fifty-four formalin-fixed lung samples from mice were submitted to HistoTox Labs and were processed routinely. Two slides from each block were sectioned and stained with hematoxylin and eosin (H&E) or Masson's trichrome. Glass slides were evaluated with light microscopy by a board-certified veterinary pathologist. Lung sections were scored according to the modified Ashcroft scale."}, "[2]": {"target": "T1, human sEH (Homo sapiens, UniProt P34913)", "T1 sequence (P34913 1-555)": "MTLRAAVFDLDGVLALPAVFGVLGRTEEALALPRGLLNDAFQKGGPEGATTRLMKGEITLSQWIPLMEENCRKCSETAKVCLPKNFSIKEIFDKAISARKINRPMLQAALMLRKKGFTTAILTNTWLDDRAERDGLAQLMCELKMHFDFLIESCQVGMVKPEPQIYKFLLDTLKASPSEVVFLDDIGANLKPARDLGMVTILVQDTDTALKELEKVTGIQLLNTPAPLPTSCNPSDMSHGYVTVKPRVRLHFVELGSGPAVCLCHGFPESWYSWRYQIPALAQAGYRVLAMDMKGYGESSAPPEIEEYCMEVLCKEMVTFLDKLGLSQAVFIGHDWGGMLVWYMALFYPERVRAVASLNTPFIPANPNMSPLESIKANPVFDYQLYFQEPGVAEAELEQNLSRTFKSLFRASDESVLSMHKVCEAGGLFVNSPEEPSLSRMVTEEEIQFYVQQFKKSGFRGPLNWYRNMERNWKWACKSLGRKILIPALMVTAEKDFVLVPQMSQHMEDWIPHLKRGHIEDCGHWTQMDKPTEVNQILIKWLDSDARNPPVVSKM", "assay": "sEH inhibition IC50, fluorescent-based assay with purified recombinant sEH", "type": "biochemical", "conditions": "in vitro, relative to OX1", "protocol": "sEH inhibition IC50 values for the compounds presented herein can be assayed by a recombinant affinity assay using purified sEHs, from human, mouse or rat, in a fluorescent-based assay. In such an assay, enzymes, e.g., ˜1 nM human sEH, are incubated with a potential inhibitors for 5 min in 25 mM Bis-Tris/HCl buffer (200 μL; pH 7.0) at 30° C. before a substrate, e.g., cyano(2-methoxynaphthalen-6-yl)methyl trans-(3-phenyl-oxyran-2-yl)methyl carbonate, (CMNPC) is added ([S]final=5 μM)."}, "[3]": {"target": "T2, COX-2 (Homo sapiens, UniProt P35354)", "T2 construct": "purchased Cayman Chemical 700100", "T2 sequence (P35354 18-604)": "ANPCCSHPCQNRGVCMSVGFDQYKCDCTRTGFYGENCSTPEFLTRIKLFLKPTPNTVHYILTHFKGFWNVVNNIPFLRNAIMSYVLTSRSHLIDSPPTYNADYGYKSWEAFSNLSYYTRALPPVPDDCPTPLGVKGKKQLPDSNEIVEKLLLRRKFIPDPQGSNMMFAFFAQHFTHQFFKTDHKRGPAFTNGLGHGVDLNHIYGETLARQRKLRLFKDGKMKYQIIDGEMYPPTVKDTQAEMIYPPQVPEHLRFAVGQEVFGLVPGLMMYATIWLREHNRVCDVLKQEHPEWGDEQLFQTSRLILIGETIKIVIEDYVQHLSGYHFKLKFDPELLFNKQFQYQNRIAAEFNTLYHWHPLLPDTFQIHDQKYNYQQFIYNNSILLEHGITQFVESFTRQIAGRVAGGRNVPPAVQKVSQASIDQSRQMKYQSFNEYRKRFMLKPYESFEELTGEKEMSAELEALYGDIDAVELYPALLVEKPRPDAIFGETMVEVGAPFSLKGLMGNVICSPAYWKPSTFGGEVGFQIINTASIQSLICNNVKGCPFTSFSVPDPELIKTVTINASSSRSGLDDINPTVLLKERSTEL", "assay": "COX-2 inhibition IC50, COX Fluorescent Inhibitor Screening Assay", "type": "biochemical", "protocol": "A COX Fluorescent Inhibitor Screening Assay Kit (catalog number 700100, Cayman Chemical, Ann Arbor, Mich.) is useful for assaying the ability of the compounds provided herein to inhibit ovine COX-1 and human recombinant COX-2 (% inhibition at 100 μM and IC50 values (M), respectively). Stock solutions of test compounds are dissolved in a minimum volume of DMSO. 10 μl of various concentrations of the test compound solutions, e.g., [I]final between 0.01 and 100 μM, are added to a series of supplied reaction buffer solutions (150 μl, 100 mM Tris-HCl, pH 8.0) with either COX-1 or COX-2 (10 μl) enzyme in the presence of Heme (10 μl) and a fluorometric substrate (10 μl). The reactions are initiated by quickly adding 10 μl of arachidonic acid solution and then incubating the system for two minutes at room temperature. Fluorescence of resorufin, which is produced by the reaction between PGG2 and fluorometric substrate, ADHP (10-acetyl-3,7-dihydroxyphenoxazine), is analyzed with an excitation wavelength of 535 nm and an emission wavelength of 590 nm. The intensity of this fluorescence is proportional to the amount of resorufin, which is proportional to the amount of PGG2 present in the well during the incubation. Percent inhibition is calculated by comparison from the 100% initial activity sample value (no inhibitor)."}, "[4]": {"conditions": "day 21, compared to vehicle (Group 2)"}},
  "note": "Entries after “also recorded” stand apart in the source; their conditions may differ.",
  "data": [
    {"smiles": "CNc1nc(C)nc(N[C@H]2CCC[C@@H](C(=O)NCc3ccc(C#N)cc3C(F)(F)F)C2)n1", "note": "[OX3]", "values": [
      {"measurement": "body weight course over 21 days", "setting": "[1]; bleomycin mice, oral gavage day -1 to 20", "value": "lost the least weight; also recorded: sustained weight loss"},
      {"measurement": "neutrophil migration into BALF", "setting": "[1]; day 21, oral", "value": "somewhat effective"},
      {"measurement": "number of lymphocytes in BALF", "setting": "[1]; day 21, oral", "value": "trend increasingly lower"},
      {"measurement": "number of macrophages in BALF", "setting": "[1]; day 21, oral", "value": "more macrophages"},
      {"measurement": "total cell (leukocyte) count in BALF", "setting": "[1]; day 21, oral", "value": "did not demonstrate the same level of reduction"},
      {"measurement": "increased collagen (fibrosis) score, trichrome", "setting": "[1]; [4]", "value": "slightly lower"},
      {"measurement": "mean Ashcroft score (lung histology)", "setting": "[1]; [4]", "value": "slightly lower"},
      {"measurement": "mean score for mixed peribronchiolar/perivascular inflammation", "setting": "[1]; [4]", "value": "lower"},
      {"measurement": "fold more potent against sEH than OX1", "setting": "[2]", "value": "roughly 75 fold"},
      {"measurement": "IC50", "setting": "[3]", "value": "> 1000", "unit": "nM"},
      {"measurement": "times less potent on COX-2 than OX1", "setting": "[3]; in vitro, relative to OX1", "value": "at least 10 times"}
    ]}
  ]
}
